Results taken from article PMC9065877, “Safety, tolerability and pharmacokinetics of the oligomer modulator anle138b with exposure levels sufficient for therapeutic efficacy in a murine Parkinson model: A randomised, double-blind, placebo-controlled phase 1a trial” (EBioMedicine, 2022).

Experiment: Safety and tolerability (adverse events, laboratory, vital signs, ECG) in phase 1a trial in healthy subjects
Assay type: in vivo, human
Method: The primary objective was to assess the safety and tolerability of single (SAD) and multiple (MAD) ascending doses of anle138b to healthy subjects in the fasted state and to assess the safety and tolerability of single doses of anle138b in both the fasted and fed state (FES). To this end, adverse events (AEs), clinical laboratory tests, vital signs, electrocardiograms (ECGs), QT interval corrected for heart rate using Fridericia's formula (QTcF), and physical examination findings were recorded. Participants were instructed to report all potential AEs immediately to the on-site personnel and were assessed by a physician before each dose of study drug. In addition, a physical examination of the relevant body system was performed in the event that a subject reports any new symptoms or AEs. AEs were defined following standard criteria, which are described in the protocol. The detailed parameters and sampling schedule regarding haematology, clinical chemistry, ECG, blood pressure, heart rate and PK are provided in the supplement (supplement 3). Any clinically significant abnormality in these assessments, including changes from baseline, were needed to be reported as an AE.
AEs and medications were coded using the Medical Dictionary for Regulatory Activities (MedDRA) (v22·1). An independent coding review was performed within the Data Sciences department. Clinical chemistry and haematology data (and other safety laboratory data) were collected by a central laboratory (The Doctors Laboratory) and transferred electronically to Quotient Sciences. The list of parameters is provided in supplement 2. All demographic details and sample dates were cross-referenced with the corresponding data on the study database. Data was monitored by an external entity (Wirral Clinical Consultancy Ltd, Heswall, UK). Monitoring included the conduct of a site initiation visit, interim monitoring visits and a close-out visit. The database was closed after all queries had been resolved.
The study was exploratory and no formal sample size calculation was made. Based on experience from previous studies of similar design, eight subjects per cohort were enrolled for parts 1 (SAD) and 2 (MAD) and a total of twelve subjects for part 3 (FES). Populations and analysis sets were determined for safety and PK data after database lock using the criteria defined in the reporting and analysis plan. The safety population and safety analysis set for SAD and MAD were defined after database lock but prior to study unblinding. Statistical analysis and production of summary tables, figures and listings for all safety data (AEs, vital signs, ECGs and safety laboratory assessments) including changes from baseline as required in this study were performed using the statistical package SAS (v9·4). Additional statistics was provided for PK-related data including coefficient of variation (CV%), geometric mean, geometric CV%, and the number n of subjects that were included in the natural logarithmic transformation). In SAD and MAD, dose proportionality was assessed. Formal statistical analysis was performed on the log-transformed PK parameters AUC(0-last), AUC(0-inf), and Cmax for SAD (day 1), and AUC(0-tau) and Cmax for MAD (day 1 and day 7) to assess dose proportionality using the following power model: loge (AUC or Cmax) = µ + βx loge (dose). The estimate obtained for β is a measure of dose proportionality. The estimate of β together with its 90% confidence interval (CI) (βl, βu) was used to quantify the degree of non-proportionality. In MAD, formal statistical analysis was performed on the PK parameters AUC(0-tau) and Cmax to assess dose accumulation. Log-transformed AUC(0-tau) and Cmax was subjected to a mixed-effects model with treatment (dose level), day (day 1 or 7) and treatment-by-day interaction as fixed effects and subject as a random effect. […]

[1] = Food effect cohort, anle138b 150 mg fed and fasted, N=12
[2] = MAD cohorts, anle138b 100-300 mg QD 7 days, N=18
[3] = SAD cohorts, anle138b 50-300 mg single dose, N=24

With `Brc1cccc(-c2cc(-c3ccc4c(c3)OCO4)n[nH]2)c1` [anle138b, 3-(1,3-benzodioxol-5-yl)-5-(3-bromophenyl)-1H-pyrazole] the “Dose dependency of AE reporting” value (50 to 300 mg) was “no dose dependency”, the “Adverse events by attribution to study treatment: Definite, number of events” value (from here on “Adverse events … Definite, number of events”) (Food effect cohort, N=12) was 0 and the “Adverse events by attribution to study treatment: Not related, number of events (%)” value (Food effect cohort, N=12) was 6 (100). The “Adverse events by attribution to study treatment: Possible, number of events (%)” value (from here on “Adverse events … Possible, number of events (%)”) (Food effect cohort, N=12) was 0, the “Adverse events by attribution to study treatment: Probable, number of events” value (from here on “Adverse events … Probable, number of events”) (Food effect cohort, N=12) was 0 and the “Adverse events by grade: Mild, number of events (%)” value (from here on “Adverse events by grade: Mild … (%)”) (Food effect cohort, N=12) was 6 (100). The “Adverse events by grade: Moderate, number of events (%)” value (Food effect cohort, N=12) was 0, the “Adverse events by outcome: Recovered, number of events (%)” value (“Adverse events by outcome … (%)” below) (Food effect cohort, N=12) was 6 (100) and the “Eye disorders (ocular hyperaemia, vision blurred): number of events [patients affected %]” value (“Eye disorders … [patients affected %]” for short) (Food effect cohort, N=12) was 0. The “Gastrointestinal disorders (diarrhea, nausea): number of events [patients affected %]” value (Food effect cohort, N=12) was 0, the “General disorders and administration site conditions (Chest discomfort, fatigue, medical device site reaction): number of events [patients affected %]” value (Food effect cohort, N=12) was 1 [8·3] and the “Infections and infestations (Nasopharyngitis, rhinitis): number of events [patients affected %]” value (Food effect cohort, N=12) was 0. For the same compound, the “Injury, poisoning and procedural complications (procedural dizziness): number of events [patients affected %]” value (from here on “Injury … [patients affected %]”) (Food effect cohort, N=12) was 2 [16·7], the “Musculosceletal and connective tissue disorders (Back pain): number of events [patients affected %]” value (Food effect cohort, N=12) was 0 and the “Nervous system disorders (headache, paraestesia): number of events [patients affected %]” value (“Nervous system disorders … [patients affected %]” for short) (Food effect cohort, N=12) was 3 [25]. The “Psychiatric disorders (abnormal dreams): number of events [patients affected %]” value (“Psychiatric disorders … [patients affected %]” for short) (Food effect cohort, N=12) was 0, the “Number of patients with adverse event(s) [%]” value [1] was 5 [41·7] and the “Number of patients with no adverse event [%]” value [1] was 7 [58·3]. The “Adverse events … Definite, number of events” value (MAD cohorts, N=18) was 0, the “Adverse events by attribution to study treatment: Not related, number of events (%)” value (MAD cohorts, N=18) was 9 (90) and the “Adverse events … Possible, number of events (%)” value (MAD cohorts, N=18) was 1 (10). The “Adverse events … Probable, number of events” value (MAD cohorts, N=18) was 0, the “Adverse events by grade: Mild … (%)” value (MAD cohorts, N=18) was 9 (90) and the “Adverse events by grade: Moderate, number of events (%)” value (MAD cohorts, N=18) was 1 (10). For the same compound, the “Adverse events by outcome … (%)” value (MAD cohorts, N=18) was 10 (100), the “Eye disorders … [patients affected %]” value (MAD cohorts, N=18) was 1 [5·6] and the “Gastrointestinal disorders (diarrhea, nausea): number of events [patients affected %]” value (MAD cohorts, N=18) was 1 [5·6]. The “General disorders and administration site conditions (Chest discomfort, fatigue, medical device site reaction): number of events [patients affected %]” value (MAD cohorts, N=18) was 1 [5·6], the “Infections and infestations (Nasopharyngitis, rhinitis): number of events [patients affected %]” value (MAD cohorts, N=18) was 1 [5·6] and the “Injury … [patients affected %]” value (MAD cohorts, N=18) was 0. For the same compound, the “Musculosceletal and connective tissue disorders (Back pain): number of events [patients affected %]” value (MAD cohorts, N=18) was 2 [11·1], the “Nervous system disorders … [patients affected %]” value (MAD cohorts, N=18) was 4 [16·7] and the “Psychiatric disorders … [patients affected %]” value (MAD cohorts, N=18) was 0. The “Number of patients with adverse event(s) [%]” value [2] was 6 [33·3], the “Number of patients with no adverse event [%]” value [2] was 12 [66·7] and the “Moderate AE” value (MAD part, 100 mg anle138b) was “an episode of back pain”. For the same compound, the “AE considered possibly related to the study medication” value (MAD part, 200 mg anle138b, assessed prior to unblinding) was “one event of headache”, the “Adverse events … Definite, number of events” value (SAD cohorts, N=24) was 0 and the “Adverse events by attribution to study treatment: Not related, number of events (%)” value (SAD cohorts, N=24) was 5 (100). For the same compound, the “Adverse events … Possible, number of events (%)” value (SAD cohorts, N=24) was 0, the “Adverse events … Probable, number of events” value (SAD cohorts, N=24) was 0 and the “Adverse events by grade: Mild … (%)” value (SAD cohorts, N=24) was 5 (100). For the same compound, the “Adverse events by grade: Moderate, number of events (%)” value (SAD cohorts, N=24) was 0, the “Adverse events by outcome … (%)” value (SAD cohorts, N=24) was 5 (100) and the “Eye disorders … [patients affected %]” value (SAD cohorts, N=24) was 1 [4·2]. The “Gastrointestinal disorders (diarrhea, nausea): number of events [patients affected %]” value (SAD cohorts, N=24) was 0, the “General disorders and administration site conditions (Chest discomfort, fatigue, medical device site reaction): number of events [patients affected %]” value (SAD cohorts, N=24) was 0 and the “Infections and infestations (Nasopharyngitis, rhinitis): number of events [patients affected %]” value (SAD cohorts, N=24) was 1 [4·2]. The “Injury … [patients affected %]” value (SAD cohorts, N=24) was 0, the “Musculosceletal and connective tissue disorders (Back pain): number of events [patients affected %]” value (SAD cohorts, N=24) was 1 [4·2] and the “Nervous system disorders … [patients affected %]” value (SAD cohorts, N=24) was 2 [8·3]. The “Psychiatric disorders … [patients affected %]” value (SAD cohorts, N=24) was 0, the “Number of patients with adverse event(s) [%]” value [3] was 4 [16·7] and the “Number of patients with no adverse event [%]” value [3] was 20 [83·3]. The “Tolerability and compound-related side effects” value (all tested doses (up to 300 mg)) was “excellent tolerability and no compound-related side effects” and the “Changes in safety assessments (laboratory values, vital signs, physical examinations, ECG)” value (any subject included in the trial) was “no clinically significant individual changes from baseline or notable trends”.
